Tested on: 323965-272-R-J2-PDC complex spheroid viability
Test: Anticancer human tumor 323965-272-R-J2-PDC patient-derived pancreatic carcinoma cell line growth inhibition [CLK]
Conditions: for IC50: curve of first compound; for viability, T/C: stronger effect = lower value
Method in brief: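 Multi-cell-type spheroids combined patient-derived tumor cells with HUVEC endothelial cells and human mesenchymal stem cells. Paired agents were dosed in half-log steps down from about clinical Cmax, or from 10 microM where Cmax was unknown.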

[1] = second compound 0.0316 µM, first compound 0.0316 µM
[2] = second compound 0.0316 µM, first compound 0.1 µM
[3] = second compound 0.0316 µM, first compound 0.316 µM
[4] = second compound 0.0316 µM, first compound 1 µM
[5] = second compound 0.0316 µM, first compound 3.16 µM
[6] = second compound 0.0316 µM, first compound 10 µM
[7] = second compound 0.1 µM, first compound 0.0316 µM
[8] = second compound 0.1 µM, first compound 0.1 µM
[9] = second compound 0.1 µM, first compound 0.316 µM
[10] = second compound 0.1 µM, first compound 1 µM
[11] = second compound 0.1 µM, first compound 3.16 µM
[12] = second compound 0.1 µM, first compound 10 µM
[13] = second compound 0.316 µM, first compound 0.0316 µM
[14] = second compound 0.316 µM, first compound 0.1 µM
[15] = second compound 0.316 µM, first compound 0.316 µM
[16] = second compound 0.316 µM, first compound 1 µM
[17] = second compound 0.316 µM, first compound 3.16 µM
[18] = second compound 0.316 µM, first compound 10 µM
[19] = second compound 1 µM, first compound 0.0316 µM
[20] = second compound 1 µM, first compound 0.1 µM
[21] = second compound 1 µM, first compound 0.316 µM
[22] = second compound 1 µM, first compound 1 µM
[23] = second compound 1 µM, first compound 3.16 µM
[24] = second compound 1 µM, first compound 10 µM
[25] = second compound 3.16 µM, first compound 0.0316 µM
[26] = second compound 3.16 µM, first compound 0.1 µM
[27] = second compound 3.16 µM, first compound 0.316 µM
[28] = second compound 3.16 µM, first compound 1 µM
[29] = second compound 3.16 µM, first compound 3.16 µM
[30] = second compound 3.16 µM, first compound 10 µM
[31] = second compound 10 µM, first compound 0.0316 µM
[32] = second compound 10 µM, first compound 0.1 µM
[33] = second compound 10 µM, first compound 0.316 µM
[34] = second compound 10 µM, first compound 1 µM
[35] = second compound 10 µM, first compound 3.16 µM
[36] = second compound 10 µM, first compound 10 µM
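Also: spheroids exposed to agents for seven days before readout.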
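For viability, T/C in this document: percent of DMSO vehicle control wells so 100% = untreated growth.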

C=CC(=O)N1CCN(c2nc(=O)n(-c3c(C)ccnc3C(C)C)c3nc(-c4c(O)cccc4F)c(F)cc23)C(C)C1 (stereo unspecified) + CNC(=O)c1ccc(Nc2nc(OC3CCCC3)c3c(-c4ccc5nc(C)oc5c4)c[nH]c3n2)c(OC)c1
IC50 (second compound 0.0316 µM): > 10000 nM | IC50 (second compound 0.1 µM): > 10000 nM | IC50 (second compound 0.316 µM): < 31.6 nM | IC50 (second compound 1 µM): < 31.6 nM | IC50 (second compound 3.16 µM): < 31.6 nM | IC50 (second compound 10 µM): < 31.6 nM | viability, T/C [1]: 61.4% | viability, T/C [2]: 66.7% | viability, T/C [3]: 66.9% | viability, T/C [4]: 73.9% | viability, T/C [5]: 69% | viability, T/C [6]: 76.4% | viability, T/C [7]: 66.6% | viability, T/C [8]: 59.5% | viability, T/C [9]: 59.1% | viability, T/C [10]: 55.4% | viability, T/C [11]: 59.5% | viability, T/C [12]: 58.7% | viability, T/C [13]: 44.8% | viability, T/C [14]: 41.1% | viability, T/C [15]: 39.7% | viability, T/C [16]: 47.8% | viability, T/C [17]: 45.1% | viability, T/C [18]: 44.4% | viability, T/C [19]: 28.3% | viability, T/C [20]: 25.1% | viability, T/C [21]: 24.4% | viability, T/C [22]: 27.9% | viability, T/C [23]: 28.2% | viability, T/C [24]: 29% | viability, T/C [25]: 26.9% | viability, T/C [26]: 25.8% | viability, T/C [27]: 28.5% | viability, T/C [28]: 23.9% | viability, T/C [29]: 26.6% | viability, T/C [30]: 30.3% | viability, T/C [31]: 23.2% | viability, T/C [32]: 21.4% | viability, T/C [33]: 26.9% | viability, T/C [34]: 24.4% | viability, T/C [35]: 27.1% | viability, T/C [36]: 28.6%

CC(CO)NC(=O)c1cc(-c2ccc(Cl)cc2)nn(-c2cnn(C)c2)c1=O (stereo unspecified) + CNC(=O)c1ccc(Nc2nc(OC3CCCC3)c3c(-c4ccc5nc(C)oc5c4)c[nH]c3n2)c(OC)c1
IC50 (second compound 0.0316 µM): > 10000 nM | IC50 (second compound 0.1 µM): > 10000 nM | IC50 (second compound 0.316 µM): > 10000 nM | IC50 (second compound 1 µM): < 31.6 nM | IC50 (second compound 3.16 µM): < 31.6 nM | IC50 (second compound 10 µM): < 31.6 nM | viability, T/C [1]: 122% | viability, T/C [2]: 85.6% | viability, T/C [3]: 100% | viability, T/C [4]: 101% | viability, T/C [5]: 102% | viability, T/C [6]: 103% | viability, T/C [7]: 81.2% | viability, T/C [8]: 80.5% | viability, T/C [9]: 76.5% | viability, T/C [10]: 73.7% | viability, T/C [11]: 76.9% | viability, T/C [12]: 72.1% | viability, T/C [13]: 60% | viability, T/C [14]: 67.4% | viability, T/C [15]: 67.1% | viability, T/C [16]: 57.8% | viability, T/C [17]: 61% | viability, T/C [18]: 53.4% | viability, T/C [19]: 50.8% | viability, T/C [20]: 41.2% | viability, T/C [21]: 42.2% | viability, T/C [22]: 51.1% | viability, T/C [23]: 51.6% | viability, T/C [24]: 48.7% | viability, T/C [25]: 41.8% | viability, T/C [26]: 42.5% | viability, T/C [27]: 40.1% | viability, T/C [28]: 35.5% | viability, T/C [29]: 44.4% | viability, T/C [30]: 47.1% | viability, T/C [31]: 43.2% | viability, T/C [32]: 40.4% | viability, T/C [33]: 36.8% | viability, T/C [34]: 43.1% | viability, T/C [35]: 41.5% | viability, T/C [36]: 41.4%

COc1c(OCCCN2CCOCC2)ccc2c3n(c(=NC(=O)c4cnc(N)nc4)nc12)CCN3 + CNC(=O)c1ccc(Nc2nc(OC3CCCC3)c3c(-c4ccc5nc(C)oc5c4)c[nH]c3n2)c(OC)c1
IC50 (second compound 0.0316 µM): 90.7 nM | IC50 (second compound 0.1 µM): 62.2 nM | IC50 (second compound 0.316 µM): 16.3 nM | IC50 (second compound 1 µM): < 3.16 nM | IC50 (second compound 3.16 µM): < 3.16 nM | IC50 (second compound 10 µM): < 3.16 nM | viability, T/C (second compound 0.0316 µM, first compound 0.00316 µM): 107% | viability, T/C (second compound 0.0316 µM, first compound 0.01 µM): 82% | viability, T/C [1]: 66.8% | viability, T/C [2]: 48.4% | viability, T/C [3]: 34.1% | viability, T/C [4]: 22.2% | viability, T/C (second compound 0.1 µM, first compound 0.00316 µM): 89.8% | viability, T/C (second compound 0.1 µM, first compound 0.01 µM): 84.6% | viability, T/C [7]: 58.8% | viability, T/C [8]: 42% | viability, T/C [9]: 31.2% | viability, T/C [10]: 21.1% | viability, T/C (second compound 0.316 µM, first compound 0.00316 µM): 64.5% | viability, T/C (second compound 0.316 µM, first compound 0.01 µM): 56.7% | viability, T/C [13]: 42.4% | viability, T/C [14]: 31.7% | viability, T/C [15]: 27.7% | viability, T/C [16]: 16.4% | viability, T/C (second compound 1 µM, first compound 0.00316 µM): 45.5% | viability, T/C (second compound 1 µM, first compound 0.01 µM): 38.8% | viability, T/C [19]: 31.8% | viability, T/C [20]: 24.5% | viability, T/C [21]: 21.4% | viability, T/C [22]: 15.2% | viability, T/C (second compound 3.16 µM, first compound 0.00316 µM): 37.5% | viability, T/C (second compound 3.16 µM, first compound 0.01 µM): 28.3% | viability, T/C [25]: 23.3% | viability, T/C [26]: 19.4% | viability, T/C [27]: 15.8% | viability, T/C [28]: 13.7% | viability, T/C (second compound 10 µM, first compound 0.00316 µM): 44.8% | viability, T/C (second compound 10 µM, first compound 0.01 µM): 32.7% | viability, T/C [31]: 26.4% | viability, T/C [32]: 19.8% | viability, T/C [33]: 17.1% | viability, T/C [34]: 13.5%

— PubChem BioAssay AID2060619 (Molecular Pharmacology Branch, DTP, NCI, 2025)
